Measurements taken from ChEMBL document CHEMBL1201862, “PubChem BioAssay data set” (2004).
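All cell lines were grown in 96-well plates and treated with compound for 48 hours. The concentration for 50% growth inhibition is given as GI50.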 Activity calls are given as the source filed them. No stated cut-off is given here; in the data, active = GI50 up to about 1.1 µM and inactive = higher.

How the values were obtained:
Assay in all cases: inhibition of tumour cell growth, NCI panel, 48 h
Malme-3M = test system: Malme-3M
M14 = test system: M14
SF-268 = test system: SF-268
SNB-19 = test system: SNB-19
HT-29 = test system: HT-29
U-251 = test system: U-251
HOP-62 = test system: HOP-62
MDA-MB-231 = test system: MDA-MB-231
SK-MEL-2 = test system: SK-MEL-2
KM12 = test system: KM12
RPMI-8226 = test system: RPMI-8226
ACHN = test system: ACHN
SF-295 = test system: SF-295
RXF 393 = test system: RXF 393
OVCAR-4 = test system: OVCAR-4
NCI-H460 = test system: NCI-H460
UACC-257 = test system: UACC-257
SW-620 = test system: SW-620
SN12C = test system: SN12C
T47D = test system: T47D

Row | SMILES | GI50 (Malme-3M) | GI50 (M14) | GI50 (SF-268) | GI50 (SNB-19) | GI50 (HT-29) | GI50 (U-251) | GI50 (HOP-62) | GI50 (MDA-MB-231) | GI50 (SK-MEL-2) | GI50 (KM12) | GI50 (RPMI-8226) | GI50 (ACHN) | GI50 (SF-295) | GI50 (RXF 393) | GI50 (OVCAR-4) | GI50 (NCI-H460) | GI50 (UACC-257) | GI50 (SW-620) | GI50 (SN12C) | GI50 (T47D)
1 | CN1CCN(C2=CC(=O)c3c(O)ccc(O)c3C2=O)CC1 | 0.228 µM (active) | 0.647 µM (active) | 1.57 µM (inactive) | 1.69 µM (inactive) | 0.302 µM (active) | 1.61 µM (inactive) | 1 µM (active) | 1.46 µM (inactive) | 2.45 µM (inactive) | 2.07 µM (inactive) | 1.37 µM (inactive) | 1.54 µM (inactive) | 1.69 µM (inactive) | 1.57 µM (inactive) | 2.02 µM (inactive) | 1.9 µM (inactive) | 0.244 µM (active) | 0.618 µM (active) | 1.64 µM (inactive) | 0.69 µM (active)
2 | O=C(N/N=C\c1cccs1)c1ccncc1 | > 100 µM (inactive) | > 100 µM (inactive) | > 100 µM (inactive) | > 100 µM (inactive) | > 100 µM (inactive) | > 100 µM (inactive) | > 100 µM (inactive) | > 100 µM (inactive) | > 100 µM (inactive) | > 100 µM (inactive) | > 100 µM (inactive) | > 100 µM (inactive) | > 100 µM (inactive) | > 100 µM (inactive) | > 100 µM (inactive) | > 100 µM (inactive) | > 100 µM (inactive) | > 100 µM (inactive) | > 100 µM (inactive) | > 100 µM (inactive)
3 | COC(=O)c1cc(Br)c(C(=O)C(Cl)(Cl)Cl)[nH]1 | > 100 µM (inactive) | > 100 µM (inactive) | > 100 µM (inactive) | > 100 µM (inactive) | > 100 µM (inactive) | > 100 µM (inactive) | > 100 µM (inactive) | > 100 µM (inactive) | > 100 µM (inactive) | > 100 µM (inactive) | > 100 µM (inactive) | > 100 µM (inactive) | > 100 µM (inactive) | > 100 µM (inactive) | > 100 µM (inactive) | > 100 µM (inactive) | > 100 µM (inactive) | > 100 µM (inactive) | > 100 µM (inactive) | > 100 µM (inactive)
4 | NC(=O)NCCSC1CCCCC1O (stereo not given) | > 100 µM (inactive) | > 100 µM (inactive) | > 100 µM (inactive) | > 100 µM (inactive) | > 100 µM (inactive) | > 100 µM (inactive) | > 100 µM (inactive) | > 100 µM (inactive) | > 100 µM (inactive) | > 100 µM (inactive) | > 100 µM (inactive) | > 100 µM (inactive) | > 100 µM (inactive) | > 100 µM (inactive) | > 100 µM (inactive) | > 100 µM (inactive) | > 100 µM (inactive) | > 100 µM (inactive) | > 100 µM (inactive) | > 100 µM (inactive)
5 | O=C1CC(O)c2c1csc2Br (stereo not given) | 30.8 µM (inactive) | 18.2 µM (inactive) | 27.4 µM (inactive) | 34.2 µM (inactive) | 33.3 µM (inactive) | 19.8 µM (inactive) | 73.6 µM (inactive) | 23.8 µM (inactive) | 34.2 µM (inactive) | 18.7 µM (inactive) | 14.3 µM (inactive) | 21.9 µM (inactive) | 60.7 µM (inactive) | 17.3 µM (inactive) | 31.6 µM (inactive) | 25.7 µM (inactive) | 10.7 µM (inactive) | 15.3 µM (inactive) | 20.7 µM (inactive) | 23.7 µM (inactive)
6 | CCCCCCCCCCCCCCCCNc1ccn(C2CC(O)C(COC(c3ccccc3)(c3ccccc3)c3ccc(OC)cc3)O2)c(=O)n1 (stereo not given) | > 100 µM (inactive) | > 100 µM (inactive) | > 100 µM (inactive) | > 100 µM (inactive) | > 100 µM (inactive) | 64.1 µM (inactive) | > 100 µM (inactive) | > 100 µM (inactive) | > 100 µM (inactive) | > 100 µM (inactive) | > 100 µM (inactive) | > 100 µM (inactive) | > 100 µM (inactive) | > 100 µM (inactive) | > 100 µM (inactive) | > 100 µM (inactive) | > 10 µM (inactive) | > 100 µM (inactive) | > 100 µM (inactive) | > 100 µM (inactive)
7 | NC(=O)c1csc(C2(O)COC(CO)C2O)n1 (stereo not given) | > 100 µM (inactive) | > 100 µM (inactive) | > 100 µM (inactive) | > 100 µM (inactive) | > 100 µM (inactive) | > 100 µM (inactive) | > 100 µM (inactive) | > 100 µM (inactive) | > 100 µM (inactive) | > 100 µM (inactive) | > 100 µM (inactive) | > 100 µM (inactive) | > 100 µM (inactive) | > 100 µM (inactive) | > 100 µM (inactive) | > 100 µM (inactive) | > 100 µM (inactive) | > 100 µM (inactive) | > 100 µM (inactive) | > 100 µM (inactive)
8 | CCOc1ccc(N/C(=C(/C(Cl)=C(/Cl)N(CC)CC)[N+](=O)[O-])n2nnc3ccccc32)cc1 | 17.9 µM (inactive) | 31.8 µM (inactive) | 15.7 µM (inactive) | 31.7 µM (inactive) | 26.4 µM (inactive) | 14 µM (inactive) | 30.7 µM (inactive) | 10.7 µM (inactive) | 28.2 µM (inactive) | 12 µM (inactive) | 26.9 µM (inactive) | 20 µM (inactive) | 30.6 µM (inactive) | 14.4 µM (inactive) | 19.7 µM (inactive) | 56.5 µM (inactive) | 38.7 µM (inactive) | 14.2 µM (inactive) | 21.6 µM (inactive) | 14.2 µM (inactive)
9 | COc1ccc(/C=C(\NC(=O)c2ccccc2)C(=O)NN(C)c2ccnc3cc(Cl)ccc23)cc1OC | 26.1 µM (inactive) | 22.6 µM (inactive) | 18.5 µM (inactive) | 41.2 µM (inactive) | 34.7 µM (inactive) | 19.7 µM (inactive) | 41.3 µM (inactive) | 24.3 µM (inactive) | 21.3 µM (inactive) | 17.6 µM (inactive) | 20 µM (inactive) | 26.1 µM (inactive) | 36.2 µM (inactive) | 18.9 µM (inactive) | 30.7 µM (inactive) | 19 µM (inactive) | 26.4 µM (inactive) | 22.1 µM (inactive) | 25.9 µM (inactive) | 30.4 µM (inactive)
10 | CCc1nc(N)nc(N)c1-c1ccc(N2CCNCC2)c([N+](=O)[O-])c1 | 15.5 µM (inactive) | 7.08 µM (inactive) | 9.29 µM (inactive) | 41.5 µM (inactive) | 4.47 µM (inactive) | 6.03 µM (inactive) | 19.4 µM (inactive) | 26.5 µM (inactive) | 36.9 µM (inactive) | 12 µM (inactive) | 29.5 µM (inactive) | 17.9 µM (inactive) | 7.96 µM (inactive) | 24.5 µM (inactive) | 32.7 µM (inactive) | 2.11 µM (inactive) | 13.9 µM (inactive) | 5.4 µM (inactive) | 22 µM (inactive) | 58.5 µM (inactive)
